Test results from the NIST ThermoML archive (doi:10.1021/acs.jced.6b00354).

Test: mn = molality of the nth substance listed, in mol/kg
Conditions: 100 kPa, Liquid, Alternating current cell with electrodes

CC(=O)N(C)C [N,N-dimethylethanamide] + CCCCn1cc[n+](C)c1.F[B-](F)(F)F
electrical conductivity [S/m]
Conditions	283.15 K	288.15 K	293.15 K	298.15 K	303.15 K	308.15 K	313.15 K	318.15 K
m2 = 0.0003956	0.0021612	0.0023283	0.0025019	0.0026803	0.0028647	0.0030385	0.00322	0.0034051
m2 = 0.000671	0.0036275	0.0039047	0.004196	0.0044945	0.0047984	0.0050953	0.0053975	0.0057039
m2 = 0.0009718	0.0051999	0.0056027	0.0060224	0.0064451	0.0068768	0.0073024	0.0077338	0.0081707
m2 = 0.001959	0.010227	0.011022	0.011831	0.012666	0.013508	0.014339	0.015175	0.01603
m2 = 0.002976	0.01525	0.016416	0.017623	0.018852	0.020112	0.021302	0.022571	0.023828
m2 = 0.003778	0.019105	0.020563	0.022088	0.023628	0.025189	0.026664	0.028258	0.029817
m2 = 0.005993	0.02947	0.03171	0.034016	0.036401	0.038756	0.041015	0.043439	0.045784
m2 = 0.007976	0.03841	0.041353	0.044368	0.047396	0.050472	0.053564	0.056503	0.059519
m2 = 0.009999	0.047279	0.050928	0.054557	0.058325	0.062033	0.065747	0.069408	0.073087
m2 = 0.01203	0.055972	0.060177	0.064588	0.069017	0.073419	0.077654	0.082086	0.086346
m2 = 0.01408	0.064541	0.069536	0.074489	0.079576	0.084557	0.089517	0.094529	0.099432
m2 = 0.01598	0.072339	0.07784	0.083519	0.089184	0.094781	0.10031	0.10588	0.1113

CCn1cc[n+](C)c1.F[B-](F)(F)F [1-ethyl-3-methylimidazolium tetrafluoroborate] + CC(=O)N(C)C
electrical conductivity [S/m]
Conditions	283.15 K	288.15 K	293.15 K	298.15 K	303.15 K	308.15 K	313.15 K	318.15 K
m1 = 0.0005629	0.0031908	0.0034405	0.0036939	0.0039526	0.0042191	0.004484	0.0047434	0.0050185
m1 = 0.0006895	0.0038906	0.004193	0.0045017	0.0048205	0.0051443	0.0054656	0.0057804	0.0061132
m1 = 0.000982	0.0054941	0.0059172	0.0063518	0.0067988	0.0072509	0.0077078	0.0081485	0.0086157
m1 = 0.001939	0.010589	0.011412	0.012243	0.013099	0.013967	0.014834	0.015676	0.016565
m1 = 0.002956	0.015824	0.017057	0.018294	0.019571	0.020868	0.022135	0.023398	0.024707
m1 = 0.004046	0.021327	0.022927	0.024608	0.026319	0.028044	0.029762	0.031425	0.033169
m1 = 0.005688	0.029289	0.031559	0.033817	0.036147	0.038528	0.040878	0.043126	0.045508
m1 = 0.007809	0.039246	0.042233	0.045277	0.048414	0.051576	0.054665	0.057654	0.060821
m1 = 0.009857	0.048544	0.052266	0.056056	0.059913	0.063775	0.067588	0.071261	0.075126
m1 = 0.01192	0.057623	0.062014	0.06648	0.071	0.075636	0.08016	0.08449	0.089017
m1 = 0.01392	0.066221	0.071259	0.076376	0.081634	0.08688	0.09207	0.097012	0.10224
m1 = 0.01584	0.074143	0.079848	0.085601	0.091493	0.097323	0.10312	0.10873	0.11459
